The text below walks through data of patent US10821096B1, “Compounds for inhibiting NS3 and compositions containing the inhibited protein” (priority 2019, dated 2020).

Assay [1] deals with T1, NS3 (Hepatitis C virus genotype 4a, UniProt O39929, A1087S/A1113S/A1121T/A1128S/I1140V/I1160T/I1179L/R1118K/R1176A/S1127A).
T1 construct: NS3 protease domain 1-181 aa+N-terminal T7 tag and C-terminal His tag; T7 tag (N); made in house; host or cells: E. coli Rosette (DE3) pLysS, vector pET-3a
As to the kind of experiment: Binding and competition assay (fluorescence anisotropy, displacement of FITC-NS4A from NS3). Details: species or system HCV genotype 4a. The conditions noted are these: for binding affinity (in words): fluorescence anisotropy competition with FITC-NS4A. The method, then: Binding buffer (20 mM HEPES, 10 mM DTT, 200 mM NaCl, pH 7.6), a mixture of NS3 (1.8 μM) and FITC-NS4A ([…]) at the calculated affinity constant concentration were placed in a 96-well plate as binding test solution. A serial dilution of MOC compounds (dissolved in 1.5% DMSO in binding buffer) (1/2 dilution starting from 150 μM to 0.292 μM) was mixed gently with the binding text solution for 60 minutes in the dark. The dissociation constant was calculated according to the recommended equation embedded in GraphPad Prism v8.
The binding affinity test was performed using fluorescence anisotropy technique. In this test, maximum fluorescence was first determined at optimal ratio of NS3 (1.8 μM) and FITC-NS4A (0.1 μM). Compounds that compete with NS4A should be able to decrease the fluorescence of this mixture because they prevent the binding to occur and it should be concentration-dependent. […] The reproducibility was checked using another batch of the express NS3 protein following the same procedure and the value was calculated=7.815±1.014 μM. […] Therefore, compound MOC-23 was tested for its ability to inhibit the NS3 enzyme.
On the technique in general: Fluorescence polarisation rises when a labelled molecule tumbles more slowly, as on binding a larger partner.

The target of assay [2] is T1, NS3. As to the kind of experiment: Enzyme inhibition assay (SensoLyte-520 HCV protease assay kit, FRET peptide). The settings on record: MOC-23 at 6.3 μM, NS3 4.0 μM, 5-FAM/QXL520 FRET peptide. It counts as biochemical, HCV genotype 4a. The method, then: The assay was performed using SensoLyte-520® HCV protease assay kit Fluorometric® (Anaspec, Fremont, Calif., USA) according to a modified procedure to suit the purpose of determination of allosteric inhibition. NS3 (4.0 μM) was mixed with MOC-23 (6.3 μM) for 15 minutes. Afterwards, 5-FAM/QXL™520 fluorescence resonance energy transfer (FRET) peptide was added as instructed by the assay kit manual. The sequence of this FRET peptide (5-FAM-SLGRKIQIQ) is derived from the cleavage site of NS4A/NS4B. In the FRET peptide, the fluorescence of 5-FAM is quenched by QXL™520. Upon cleavage into two separate fragments by HCV NS3/4A protease, the fluorescence of 5-FAM is recovered, and can be monitored at 490 nm/520 nm (excitation/emission). Controls included buffer, compound, compound+NS3, NS3+NS4A and FRET peptide separately. All test wells and controls were repeated in triplicates at the same 96-well plate.

T1 sequence (O39929 1027-1207 A1087S/A1113S/R1118K/A1121T/S1127A/A1128S/I1140V/I1160T/R1176A/I1179L): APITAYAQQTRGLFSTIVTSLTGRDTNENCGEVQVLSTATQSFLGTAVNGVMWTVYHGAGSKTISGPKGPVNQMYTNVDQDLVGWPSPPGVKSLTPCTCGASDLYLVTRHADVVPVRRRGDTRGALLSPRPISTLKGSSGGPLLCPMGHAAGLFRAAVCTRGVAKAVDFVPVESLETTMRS

For the molecule `CCCCCNC(=O)c1ncc(C(=O)NCCCCNC(=N)N)[nH]1` [MOC-23, N^5-(4-guanidinobutyl)-N^2-(n-pentyl)-1H-imidazole-2,5-dicarboxamide], the Kd in assay [1] (dissociation constant (reproducibility check), another batch of the expressed NS3 protein, same procedure) is 7.81 ± 1.01 µM; in assay [1] (dissociation constant Kd (competition with FITC-NS4A), fluorescence anisotropy, NS3 1.8 μM, FITC-NS4A 0.1 μM, first batch of NS3), 6.3 ± 0.3 µM. Also, in assay [1], the “binding affinity (in words)” value is on record as “highest affinity”. Further, the “inhibition of NS3 proteolytic activity” value in assay [2] is given as “abolished any proteolytic activity”.

In the case of `CCCCCCNC(=O)c1ncc(C(=O)NCCCCNC(=N)N)[nH]1` [MOC-24, N^5-(4-guanidinobutyl)-N^2-(n-hexyl)-1H-imidazole-2,5-dicarboxamide], in assay [1], the “binding affinity (in words)” value is given as “binding affinity at similar level”.

Usually Kd stands for the concentration at which binding is half-saturated. Higher therefore signals weaker binding.
